From patent US8530459B2, “Swallowtail motifs for imparting water solubility to porphyrinic compounds” (North Carolina State University, priority 2005, dated 2013) come the findings set out here.

Common to all, as to format: physicochemical
Data set [1] is described as follows: Stability of porphyrin-phosphate in protic solvent monitored by 1H NMR and LD-MS. Particulars: mixture of CDCl3/CD3OD. The text has this: Porphyrin 12a contains both the bioconjugatable site and the water-solubilizing groups, masked by tert-butyl and methyl esters, respectively. Attempts at the simultaneous removal of the tert-butyl and methyl ester protecting groups with TMS-Br were unsuccessful. […] This compound is identical to 15b (vide infra). […] The following observations were made: • (1) The crude porphyrin-phosphates, while displaying excellent water-solubility initially, precipitated out of solution within minutes. • (2) Because TMS-Br removed some of the zinc, remetalation was attempted with zinc acetate. […] Most (but not all) of the precipitate could be redissolved in concentrated (15 wt %) aqueous NaOH. • (3) When 12b was treated with TMS-Br in the presence of TEA to suppress demetalation,^27 the deprotected porphyrin-diol 11b was not formed until the addition of a protic solvent. During the work-up, 11b formed in quantitative yield, as determined by ^1H NMR spectroscopy and LD-MS [obsd m/z 567, calcd 566 for demetalated (M+H)^+] of the purified sample. • (4) A sample of 12b in a mixture of CDCl3/CD3OD was monitored by ^1H NMR and LD-MS. Within 8 h the formation of porphyrin 11b was almost quantitative (obsd m/z 566, disappearance of phosphate methyl ester singlets). • (5) Basic hydrolysis (H2O/MeOH, NaOH, various concentrations) removed only two of the methyl esters, but none of 11b was formed.

Data set [2] in a line: Water-solubility of pure porphyrin in distilled water. The conditions noted are these: thermodynamic from solid; 8-10 mg of pure porphyrin completely dissolved in 300 μL of distilled water; upper limit not determined; read-out: water-solubility (concentration). On the procedure:
Determination of the upper limit of water-solubility was not possible due to the lack of material; however, in each case examined, 8-10 mg of pure porphyrin (14b, 17b, Zn17b, 17a, Zn17a) completely dissolved in 300 μL of distilled water, consistent with a concentration of >20 mM.

A short description of data set [3]: Stability of aqueous porphyrin solutions (naked eye, absorption spectroscopy). Particulars: for precipitation or aggregation of aqueous solutions: naked eye or absorption spectroscopy; for stability of aqueous solutions: room temperature, shielded from the light.
Data set [4] can be described thus: Solubility in organic solvents. The text has this: Reaction of 11a with dimethyl chlorophosphate in anhydrous pyridine gave no 12a, whereas similar reaction with 11b gave a very low yield of 12b. The poor yields are presumably due to the combination of low solubility and low reactivity on the part of the porphyrin-diol starting materials. We assumed that incorporation of the dimethoxyphosphoryl groups at an earlier stage could provide a more efficient process.

Turning to `COP(=O)(OC)OCCC(CCOP(=O)(OC)OC)c1c2nc(cc3ccc([n-]3)c(-c3ccc(Br)cc3)c3nc(cc4ccc1[n-]4)C=C3)C=C2.[Zn+2]` [12b, Zn(II)-5-(4-Bromophenyl)-15-[1,5-bis(dimethoxyphosphoryloxy)pent-3-yl]porphyrin], the “time to almost quantitative formation of porphyrin 11b (loss of phosphate groups)” value in data set [1] is not above 8 h.
For `O=P(O)(O)OCCC(CCOP(=O)(O)O)c1c2nc(cc3ccc([nH]3)c(-c3ccc(Br)cc3)c3nc(cc4ccc1[nH]4)C=C3)C=C2` [14b, 5-(4-Bromophenyl)-15-(1,5-bis[dihydroxyphosphoryloxy)pent-3-yl]porphyrin], the solubility in data set [2] is more than 20 mM. Moreover, in data set [3], the “precipitation or aggregation of aqueous solutions” value (“precipitation or aggregation” below) is “Neither precipitation nor aggregation was observed” and the “stability of aqueous solutions” value is reported as “stable for days”.
In the same order, the values of `O=C(O)COc1ccc(-c2c3nc(cc4ccc([nH]4)c(C(CCP(=O)(O)O)CCP(=O)(O)O)c4nc(cc5ccc2[nH]5)C=C4)C=C3)cc1` [17a, 5-(4-(Carboxymethoxy)phenyl)-15-[1,5-bis(dihydroxyphosphoryl)pent-3-yl]porphyrin] are more than 20 mM, “Neither precipitation nor aggregation was observed” and “stable for days”.
In the same order, the values of `O=P(O)(O)CCC(CCP(=O)(O)O)c1c2nc(cc3ccc([nH]3)c(-c3ccc(Br)cc3)c3nc(cc4ccc1[nH]4)C=C3)C=C2` [17b, 5-(4-Bromophenyl)-15-[1,5-bis(dihydroxyphosphoryl)pent-3-yl]porphyrin] are more than 20 mM, “Neither precipitation nor aggregation was observed” and “stable for days”.
For `O=C(O)COc1ccc(-c2c3nc(cc4ccc([n-]4)c(C(CCP(=O)(O)O)CCP(=O)(O)O)c4nc(cc5ccc2[n-]5)C=C4)C=C3)cc1.[Zn+2]` [Zn17a, Zn(II)-5-(4-(Carboxymethoxy)phenyl)-15-[1,5-bis(dihydroxyphosphoryl)pent-3-yl]porphyrin], in data set [3], the “precipitation or aggregation” value is “Neither precipitation nor aggregation was observed” and the “stability of aqueous solutions” value is “stable for days”.
“Zn(II)-5-(4-Bromophenyl)-15-(1,5-dihydroxypent-3-yl)porphyrin [11b]”: in data set [4], the “solubility in most organic solvents” value is reported as “only sparingly soluble”.
“Zn(II)-5-(4-Bromophenyl)-15-[1,5-bis(dihydroxyphosphoryl)pent-3-yl]porphyrin [Zn17b]”: in data set [3], the “precipitation or aggregation” value was “Neither precipitation nor aggregation was observed” and the “stability of aqueous solutions” value is “stable for days”.
With “Zn(II)-5-(4-tert-Butoxycarbonylmethoxyphenyl)-5-(1,5-dihydroxypent-3-yl)-porphyrin [11a]”, the “solubility in most organic solvents” value in data set [4] is recorded as “only sparingly soluble”.
